In the experiment the test system is severe pain in the neck and shoulders. In words: Clinical testing: severe pain in the neck and shoulders after a car accident. The class given is in vivo, human. Conditions: person; had not slept continuously any night since the accident. The text has this: A person was involved in a car accident seven years earlier and had developed severe pain in the neck and shoulders. The patient had used non-steroidal anti-inflammatory drugs for a long time without significant effect. They had not slept continuously any night since the accident.
The patient tried the composition of Example 19 by administering topically to the areas of pain. They claimed a pain relieving effect after one minute and had no or very little pain for the following 2 to 3 days. After administration of the composition of Example 13 they were able to sleep for about 10 hours each of the next two nights.

We go through one compound from US9050312B2, “Strontium compound for treatment of sub-dermal soft tissue pain” (SANTOSOLVE AS, priority 2001, dated 2015).

For the compound `CNCC(O)C(O)C(O)C(O)CO.CNCC(O)C(O)C(O)C(O)CO.O=C([O-])CN(CCN(CC(=O)O)CC(=O)O)CC(=O)[O-].[Sr+2]` [Example 13, SrEDTA Dimeglumine Salt], the “sleep each of the next two nights” value is recorded as “about 10 hours”.
